Source: US10369149B2, “4-(2-amino-tetrahydronaphthalenyl)pyrimidine derivative, preparation method therefor, and pharmaceutical composition for preventing or treating cancer, containing same as active ingredient” (KOREA RESEARCH INSTITUTE OF CHEMICAL TECHNOLOGY, priority 2015, dated 2019)
Structures can show the parent of a compound that is named as a salt. Where two headings read alike, the source gives them in different places.

How the values were obtained:
ALK enzyme = ALK enzyme (Homo sapiens, UniProt Q9UM73); assay: Anaplastic lymphoma kinase (ALK) inhibitory activity, HTRF kinase assay; format: biochemical
Chain of ALK enzyme (Q9UM73 19-1620): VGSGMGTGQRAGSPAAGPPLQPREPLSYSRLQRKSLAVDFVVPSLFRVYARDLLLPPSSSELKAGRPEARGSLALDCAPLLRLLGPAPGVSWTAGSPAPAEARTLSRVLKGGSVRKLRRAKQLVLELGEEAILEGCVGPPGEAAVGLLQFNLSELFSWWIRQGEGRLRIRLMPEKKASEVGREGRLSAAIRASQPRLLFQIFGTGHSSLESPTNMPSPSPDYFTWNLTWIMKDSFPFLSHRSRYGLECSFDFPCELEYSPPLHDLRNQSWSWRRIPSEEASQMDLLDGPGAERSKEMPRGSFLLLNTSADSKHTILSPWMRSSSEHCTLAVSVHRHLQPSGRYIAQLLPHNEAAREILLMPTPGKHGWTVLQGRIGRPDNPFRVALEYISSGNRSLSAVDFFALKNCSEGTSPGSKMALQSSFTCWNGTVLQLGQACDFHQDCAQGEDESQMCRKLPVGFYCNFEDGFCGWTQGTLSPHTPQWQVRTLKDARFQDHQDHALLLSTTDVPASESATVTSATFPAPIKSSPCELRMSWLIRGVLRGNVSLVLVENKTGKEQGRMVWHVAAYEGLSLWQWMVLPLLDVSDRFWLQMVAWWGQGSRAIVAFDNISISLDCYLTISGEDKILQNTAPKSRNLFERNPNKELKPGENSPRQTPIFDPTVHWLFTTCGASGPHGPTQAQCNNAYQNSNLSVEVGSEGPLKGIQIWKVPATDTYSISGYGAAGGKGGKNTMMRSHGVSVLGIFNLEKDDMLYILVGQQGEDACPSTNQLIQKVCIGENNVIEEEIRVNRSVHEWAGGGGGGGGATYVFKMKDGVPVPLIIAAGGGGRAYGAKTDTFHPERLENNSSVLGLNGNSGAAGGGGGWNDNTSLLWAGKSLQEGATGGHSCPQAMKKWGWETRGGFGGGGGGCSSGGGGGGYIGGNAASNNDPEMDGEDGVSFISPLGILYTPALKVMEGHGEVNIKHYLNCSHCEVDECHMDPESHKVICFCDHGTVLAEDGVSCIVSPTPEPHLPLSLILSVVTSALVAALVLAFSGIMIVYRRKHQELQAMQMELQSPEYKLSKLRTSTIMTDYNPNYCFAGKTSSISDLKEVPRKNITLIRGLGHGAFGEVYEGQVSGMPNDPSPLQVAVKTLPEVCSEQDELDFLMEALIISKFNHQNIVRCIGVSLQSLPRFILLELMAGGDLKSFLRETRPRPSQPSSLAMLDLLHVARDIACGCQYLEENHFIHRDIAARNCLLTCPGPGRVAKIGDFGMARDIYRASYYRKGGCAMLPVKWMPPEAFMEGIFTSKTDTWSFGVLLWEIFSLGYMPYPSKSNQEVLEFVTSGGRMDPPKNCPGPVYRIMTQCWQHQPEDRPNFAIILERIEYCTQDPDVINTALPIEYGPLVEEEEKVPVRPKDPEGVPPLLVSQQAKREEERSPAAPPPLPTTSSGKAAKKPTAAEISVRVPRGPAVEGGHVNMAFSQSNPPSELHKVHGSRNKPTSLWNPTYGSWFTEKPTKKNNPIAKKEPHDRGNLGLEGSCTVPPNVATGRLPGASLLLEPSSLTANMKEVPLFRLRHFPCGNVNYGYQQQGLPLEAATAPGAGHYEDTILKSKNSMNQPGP

[1] = system: ALK L1196M cells containing ALK enzyme; assay: ALK inhibitory activity in ALK L1196M cells, SRB staining of live cells; format: cell-based
Method: DMSO (dimethylsulfoxide) was added to the well that was not loaded with the compound by the same amount as the compound. Three days after the addition of the compound, DMEM was eliminated. 10% TCA (trichloroacetic acid) was added to fix the cells. The wells were washed with running water three times and the live cells were stained with SRB solution (1× sulphorodamine B). Then, OD was measured to calculate the population of the live cells. IC50 of the experimental compound used in the experiment above was calculated by using prism software (Version 5.01, Graphpad). […] Table 2 presents the ALK inhibitory activity of the compounds of the examples of the present invention in ALK L1196M containing ALK enzyme.

[2] = system: H3122, the non-small cell lung cancer cell line; assay: ALK inhibitory activity in H3122, SRB staining of live cells; format: cell-based; details: Homo sapiens
Method: […] One day later, the compound of the present invention was added to each well at different concentrations of 10 μM, 2 μM, 0.4 μM, 0.08 μM, […], and 0.00032 μM. DMSO (dimethylsulfoxide) was added to the well that was not loaded with the compound by the same amount as the compound. Three days after the addition of the compound, DMEM was eliminated. 10% TCA (trichloroacetic acid) was added to fix the cells. The wells were washed with running water three times and the live cells were stained with SRB solution (1× sulphorodamine B). Then, OD was measured to calculate the population of the live cells. IC50 of the experimental compound used in the experiment above was calculated by using prism software (Version 5.01, Graphpad).
Table 2 presents the ALK inhibitory activity of the compounds of the examples of the present invention in H3122 containing ALK enzyme.

[3] = system: human non-small cell lung cancer cell line H3122; assay: In vivo xenograft evaluation for H3122 induced lung cancer; parameters: species or system nude mice (BALB/c nu/nu, female); details: H3122 xenograft s.c. in nude mice, oral, q.d.×14, FIGS. 1 and 2
Source text: The nude mice (BALB/c nu/nu, female) used in this experiment were purchased from Charles River Japan, Inc. and raised and tested under SPF (Specific Pathogen Free) control. The human non-small cell lung cancer cell line H3122 maintained by Korea Research Institute of Chemical Technology was used in this experiment. The female nude mice adapted to the laboratory were implanted with cancer. Particularly, H3122 cells grown to the appropriate size for passage were cut into 3×3×3 mm^3, which was transplanted (s.c.) under the right side of the nude mouse. […] For the control, 20% PEG 400+3% Tween 80 in DDW was orally administered. For the experimental group (7 mice/group), the compound was dissolved in the same solvent of the control, which was orally administered 14 times in total (q.d.×14). The size of the cancer was measured every 2˜3 days after the administration using a caliper and the diameters (long diameter (a), short diameter (b)) of the cancer were measured. The size of the cancer (volume, V) was calculated according to mathematical formula 1. Volume (mm^3)=a×b^2/2 [Mathematical Formula 1] FIG. 1 is a graph showing the results of observing the size of cancer in the control group (CONTROL), the LDK378-treated group, and the group treated with the compound of example 14 over the time. […]

Ba/F3 EML4-ALK L1196M = Ba/F3 EML4-ALK L1196M (Homo sapiens, UniProt Q9UM73, L1196M, cells depend on it); assay: ALK inhibitory activity in Ba/F3 EML4-ALK L1196M, SRB staining of live cells; details: read-out: Ba/F3 EML4-ALK L1196M, three days
Chain of Ba/F3 EML4-ALK L1196M (Q9UM73 whole entry L1196M): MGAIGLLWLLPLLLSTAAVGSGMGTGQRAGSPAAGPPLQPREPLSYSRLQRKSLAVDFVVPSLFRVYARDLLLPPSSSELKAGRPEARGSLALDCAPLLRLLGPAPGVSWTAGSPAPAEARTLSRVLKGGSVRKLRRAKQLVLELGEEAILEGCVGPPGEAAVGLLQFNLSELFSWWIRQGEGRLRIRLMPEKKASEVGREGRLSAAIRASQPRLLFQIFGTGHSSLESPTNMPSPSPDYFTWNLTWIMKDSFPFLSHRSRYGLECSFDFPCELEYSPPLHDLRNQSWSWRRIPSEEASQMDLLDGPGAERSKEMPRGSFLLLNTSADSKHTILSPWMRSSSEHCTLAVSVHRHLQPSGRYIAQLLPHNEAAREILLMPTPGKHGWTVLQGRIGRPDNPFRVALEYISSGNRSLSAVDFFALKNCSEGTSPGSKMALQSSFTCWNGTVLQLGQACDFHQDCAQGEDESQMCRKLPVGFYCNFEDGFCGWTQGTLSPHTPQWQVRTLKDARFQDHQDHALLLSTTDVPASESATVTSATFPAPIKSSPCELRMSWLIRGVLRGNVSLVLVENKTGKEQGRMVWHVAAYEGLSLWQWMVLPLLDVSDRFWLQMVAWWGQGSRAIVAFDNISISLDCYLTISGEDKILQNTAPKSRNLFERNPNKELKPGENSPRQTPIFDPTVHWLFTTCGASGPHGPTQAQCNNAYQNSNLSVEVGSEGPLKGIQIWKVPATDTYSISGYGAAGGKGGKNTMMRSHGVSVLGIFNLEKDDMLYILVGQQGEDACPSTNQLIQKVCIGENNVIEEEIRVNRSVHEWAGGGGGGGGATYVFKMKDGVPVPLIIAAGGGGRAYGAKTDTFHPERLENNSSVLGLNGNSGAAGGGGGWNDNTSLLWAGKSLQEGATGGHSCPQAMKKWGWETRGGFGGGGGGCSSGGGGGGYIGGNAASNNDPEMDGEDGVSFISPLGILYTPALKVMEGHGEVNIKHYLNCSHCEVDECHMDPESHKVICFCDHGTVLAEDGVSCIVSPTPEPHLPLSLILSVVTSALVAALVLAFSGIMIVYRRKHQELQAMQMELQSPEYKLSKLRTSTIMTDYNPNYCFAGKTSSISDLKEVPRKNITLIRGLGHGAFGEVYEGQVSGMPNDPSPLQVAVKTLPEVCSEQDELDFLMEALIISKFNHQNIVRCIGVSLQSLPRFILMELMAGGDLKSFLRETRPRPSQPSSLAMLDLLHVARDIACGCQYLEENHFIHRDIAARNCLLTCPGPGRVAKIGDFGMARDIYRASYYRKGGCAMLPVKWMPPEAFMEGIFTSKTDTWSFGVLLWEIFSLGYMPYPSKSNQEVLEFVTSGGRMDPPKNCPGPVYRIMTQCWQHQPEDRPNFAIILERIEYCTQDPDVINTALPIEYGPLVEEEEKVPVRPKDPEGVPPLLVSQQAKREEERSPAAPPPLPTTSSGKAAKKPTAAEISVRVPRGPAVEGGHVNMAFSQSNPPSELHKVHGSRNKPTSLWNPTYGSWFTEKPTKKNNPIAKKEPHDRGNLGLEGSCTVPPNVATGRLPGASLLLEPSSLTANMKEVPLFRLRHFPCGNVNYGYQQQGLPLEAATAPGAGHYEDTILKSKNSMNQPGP
Method: Particularly, 4,000 ALK L1196M cells containing ALK enzyme were distributed in each well of a 96 well plate together with 100 μl of DMEM (Dulbecco's Modified Eagle's Medium). […] DMSO (dimethylsulfoxide) was added to the well that was not loaded with the compound by the same amount as the compound. Three days after the addition of the compound, DMEM was eliminated. 10% TCA (trichloroacetic acid) was added to fix the cells. The wells were washed with running water three times and the live cells were stained with SRB solution (1× sulphorodamine B). Then, OD was measured to calculate the population of the live cells.

[4] = read-out: anaplastic lymphoma kinase (ALK) inhibitory activity at the concentration
[5] = 72 h, ALK L1196M cells, three days, SRB, read-out: ALK L1196M
[6] = ALK L1196M cells, read-out: ALK inhibitory activity in ALK L1196M containing ALK enzyme at the concentration
[7] = NCI-H3122, 72 h, three days, SRB, read-out: Non-small cell lung cancer cell line H3122
[8] = NCI-H3122, read-out: ALK inhibitory activity in H3122 containing ALK enzyme at the concentration range

Structure (SMILES) | IC50 (ALK enzyme; HTRF, read-out: ALK) [nM] | IC50 (ALK enzyme; [4]) [nM] | IC50 [1, 5] [nM] | IC50 [1, 6] [nM] | IC50 [2, 7] [nM] | IC50 [2, 8] [nM] | effect of inhibiting cancer size [3] | GI50 (Ba/F3 EML4-ALK L1196M) [nM] | IC50 ([1]; 72 h, read-out: ALK L1196M) [nM]
COc1cc2c(cc1Nc1ncc(Cl)c(Nc3ccccc3S(=O)(=O)C(C)C)n1)CCC(N)C2(C)C (stereo not drawn) [Example 22, N2-(6-amino-3-methoxy-5,5-dimethyl-5,6,7,8-tetrahydronaphthalene-2-yl)-5-chloro-N4-(2-(isopropylsulfonyl)phenyl)pyrimidine-2,4-diamine] | < 10 | ≤ 10 | < 10 | ≤ 10 | 10 to 100 | 10 to 100 | excellent, similar to LDK378 | 10 to 100 | 
COc1cc2c(cc1Nc1ncc(Cl)c(Nc3ccccc3S(=O)(=O)C(C)C)n1)CC/C(=N\N1CCN(C)CC1)C2(C)C [Example 14, (E)-5-chloro-N4-(2-(isopropylsulfonyl)phenyl)-N2-(3-methoxy-5,5-dimethyl-6-(4-methylpiperazine-1-ylimino)-5,6,7,8-tetrahydronaphthalene-2-yl)pyrimidine-2,4-diamine] | < 10 | ≤ 10 | < 10 | ≤ 10 | 10 to 100 | 10 to 100 | excellent, similar to LDK378 | 10 to 100 | 
COc1cc2c(cc1Nc1ncc(Cl)c(Nc3ccccc3S(=O)(=O)C(C)C)n1)CCC(O)C2(C)C (stereo not drawn) [Example 24, 6-(5-chloro-4-(2-(isopropylsulfonyl)phenylamino)pyrimidine-2-ylamino)-7-methoxy-1,1-dimethyl-1,2,3,4-tetrahydronaphthalene-2-ol] | 10 to 100 |  | 10 to 100 |  | 10 to 100 | 10 to 100 |  | > 100 | 
COc1cc2c(cc1Nc1ncc(Cl)c(Nc3ccccc3S(=O)(=O)C(C)C)n1)C(C)(C)C(N)CC2 (stereo not drawn) [Example 23, N2-(7-amino-3-methoxy-8,8-dimethyl-5,6,7,8-tetrahydronaphthalene-2-yl)-5-chloro-N4-(2-(isopropylsulfonyl)phenyl)pyrimidine-2,4-diamine] | 10 to 100 |  |  |  | > 100 |  |  | > 100 | 10 to 100
COc1cc2c(cc1Nc1ncc(Cl)c(Nc3ccccc3S(=O)(=O)C(C)C)n1)C(C)(C)C(NC(=O)C(F)(F)F)CC2 (stereo not drawn) [Example 7, N-(7-(5-chloro-4-(2-(isopropylsulfonyl)phenylamino)pyrimidine-2-ylamino)-6-methoxy-1,1-dimethyl-1,2,3,4-tetrahydronaphthalene-2-yl)-2,2,2-trifluoroacetamide] | > 100 |  | > 100 |  | > 100 |  |  | > 100 | 
COc1cc2c(cc1Nc1ncc(Cl)c(Nc3ccccc3S(=O)(=O)C(C)C)n1)CC/C(=N\N)C2(C)C [Example 13, (E)-5-chloro-N2-(6-hydrazono-3-methoxy-5,5-dimethyl-5,6,7,8-tetrahydronaphthalene-2-yl)-N4-(2-(isopropylsulfonyl)phenyl)pyrimidine-2,4-diamine hydrochloride] | 10 to 100 |  | 10 to 100 |  | 10 to 100 | 10 to 100 |  | > 100 | 
COc1cc2c(cc1Nc1ncc(Cl)c(Nc3ccccc3S(=O)(=O)C(C)C)n1)C(C)(C)/C(=N/N1CCN(C)CC1)CC2 [Example 19, (E)-5-chloro-N4-(2-(isopropylsulfonyl)phenyl)-N2-(3-methoxy-8,8-dimethyl-7-(4-methylpiperazine-1-ylimino)-5,6,7,8-tetrahydronaphthalene-2-yl)pyrimidine-2,4-diamine] | 10 to 100 |  | > 100 |  | > 100 |  |  | > 100 | 
COc1cc2c(cc1Nc1ncc(Cl)c(Nc3ccccc3S(=O)(=O)C(C)C)n1)C(C)(C)/C(=N/N1CCOCC1)CC2 [Example 17, (E)-5-chloro-N4-(2-(isopropylsulfonyl)phenyl)-N2-(3-methoxy-8,8-dimethyl-7-(morpholinoimino)-5,6,7,8-tetrahydronaphthalene-2-yl)pyrimidine-2,4-diamine] | > 100 |  | > 100 |  | > 100 |  |  | > 100 | 
COc1cc2c(cc1Nc1ncc(Cl)c(Nc3ccccc3S(=O)(=O)C(C)C)n1)CC/C(=N\NC(C)=O)C2(C)C [Example 9, (E)-N-(6-(5-chloro-4-(2-(isopropylsulfonyl)phenylamino)pyrimidine-2-ylamino)-7-methoxy-1,1-dimethyl-3,4-dihydronaphthalene-2(1H)-yladene)acetohydrazide] | 10 to 100 |  | 10 to 100 |  | > 100 |  |  | > 100 | 
COc1cc2c(cc1Nc1ncc(Cl)c(Nc3ccccc3S(=O)(=O)C(C)C)n1)C(C)(C)/C(=N/O)CC2 [Example 16, (E)-7-(5-chloro-4-(2-(isopropylsulfonyl)phenylamino)pyrimidine-2-ylamino)-6-methoxy-1,1-dimethyl-3,4-dihydronaphthalene-2(1H)-one oxime] | > 100 |  | > 100 |  | > 100 |  |  | > 100 | 
COc1cc2c(cc1Nc1ncc(Cl)c(Nc3ccccc3S(=O)(=O)C(C)C)n1)CCC(N(C)C)C2(C)C (stereo not drawn) [Example 28, 5-chloro-N2-(6-(dimethylamino)-3-methoxy-5,5-dimethyl-5,6,7,8-tetrahydronaphthalene-2-yl)-N4-(2-(isopropylsulfonyl)phenyl)pyrimidine-2,4-diamine] | < 10 | ≤ 10 | < 10 | ≤ 10 | 10 to 100 | 10 to 100 |  | 10 to 100 | 
